From PMC6465774 (Frontiers in Pharmacology, 2019)
Where a name gives a salt, the structure may show the parent alone.

Legend:
[1] = system: respiratory functions; settings: dose of 253 nmol/kg; ref our previous work; cited from earlier work
[2] = system: STZ treated diabetic rats with allodynia; settings: rat, in vivo
[3] = system: STZ treated diabetic and weight matched non-diabetic rats (paw pressure withdrawal threshold); settings: rat, in vivo
[4] = molecular target: T1, MOR (Rattus norvegicus, UniProt P33535); assay: [3H]DAMGO saturation binding in dorsal spinal cord membranes
T1 construct: incubating 50–100 μg of membrane protein of lumbar dorsal horn with 0.1- 4 nM; from tissue; host or cells: rat lumbar (L3-5) dorsal spinal cord / dorsal horn membranes, diabetic and control rats

[5] = system: STZ treated animals; set-up: method as in Yamamoto et al., 2009; settings: doses up to 10 mg/kg (approximately 31 μmol/kg), 7 weeks following STZ treatment; ref Yamamoto et al., 2009; cited from earlier work
[6] = system: STZ treated neuropathic rats; assay: Antagonist effect of co-administered NAL-M on the antiallodynic effect of s.c. opioids (DPA); type: in vivo, rat
[7] = system: gastric emptying in weight-matched control rats; settings: 0.1 mg/kg s.c. 30 min before methylcellulose, weight-matched control animals, n = 7
Procedure: After 20 min the rats were sacrificed and the stomachs were removed after clamping the pylorus and cardia. […] Gastric emptying (%) was calculated as follows: [1 – (absorbance of sample / maximal absorbance)] × 100. Maximal absorbance was measured by processing the test meal alone, as described above.
In a separate experiment, weight match animals were treated either with saline, or with clonidine (0.1 mg/kg), an alpha2 adrenoceptor agonist and well-known inhibitor of gastric emptying, subcutaneously 30 min before the methylcellulose administration.

T1 sequence (P33535 whole entry): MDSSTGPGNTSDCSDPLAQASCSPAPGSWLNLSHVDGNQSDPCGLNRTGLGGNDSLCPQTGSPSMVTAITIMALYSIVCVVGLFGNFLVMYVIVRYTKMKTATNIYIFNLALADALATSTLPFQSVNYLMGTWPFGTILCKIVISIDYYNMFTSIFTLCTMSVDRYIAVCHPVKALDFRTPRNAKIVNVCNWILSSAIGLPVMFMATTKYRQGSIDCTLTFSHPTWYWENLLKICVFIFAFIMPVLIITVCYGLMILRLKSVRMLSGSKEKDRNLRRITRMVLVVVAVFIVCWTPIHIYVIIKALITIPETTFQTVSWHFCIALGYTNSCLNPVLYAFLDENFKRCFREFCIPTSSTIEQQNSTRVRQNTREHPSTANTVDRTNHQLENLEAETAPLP

Structure (SMILES): CO[C@@]12C=C[C@H](OS(=O)(=O)O)[C@@H]3Oc4c(O)ccc5c4[C@@]31CCN(C)[C@@H]2C5 [14-O-MeM6SU, 14-O-methylmorphine-6-O-sulfate]
- respiratory depression [1]: no respiratory depression
- antiallodynic effect at 12th week of diabetes at the lowest antiallodynic dose [2]: produced antiallodynic effects
- antiallodynic action in diabetic rats, all tested doses ([2]; sc): significantly ameliorated the allodynia
- lowest dose that significantly attenuated the allodynia (lowest antiallodynic dose) ([2]; sc): 253 nmol/kg
- times higher potency than morphine in diabetic conditions based on ED30 values [3]: 48 times
- ED30 (effective dose producing 30% effect), diabetic animals ([3]; sc): 434 nmol/kg
- ED30 (effective dose producing 30% effect), non-diabetic animals ([3]; sc): 335 nmol/kg
- antinociceptive action in naïve rats at 253 nmol/kg ([3]; sc): failed to show any significant antinociceptive action
- dose inducing significant antinociceptive action in naïve (weight matched) rats ([3]; sc): 506 nmol/kg
- time of peak antinociceptive effect ([3]; sc): 60 min

Structure (SMILES): C[C@@H](NC(=O)[C@@H](N)Cc1ccc(O)cc1)C(=O)NCC(=O)N(C)[C@@H](Cc1ccccc1)C(=O)NCCO [DAMGO, Tyr-D-Ala-Gly-(NMe)Phe-Gly-ol]
- Bmax of [3H]DAMGO binding, controls ([4]; dorsal horn of control rats): 23.55 ± 4.36 fmol/mg
- Bmax of [3H]DAMGO binding, diabetic rats ([4]; dorsal horn of diabetic rats): 13.11 ± 1.85 fmol/mg

Structure (SMILES): CN1CC[C@]23c4c5ccc(O)c4O[C@H]2[C@@H](O)C=C[C@H]3[C@H]1C5 [Morphine, morphine hydrochloride]
- effectiveness of morphine in doses up to 10 mg/kg [5]: ineffectiveness
- antiallodynic effect at 12th week of diabetes at the lowest antiallodynic dose [2]: produced antiallodynic effects
- lowest dose that significantly attenuated the allodynia (lowest antiallodynic dose) ([2]; sc): 40000 nmol/kg
- ED30diabetic/ED30non-diabetic [3]: 7
- ED30 (effective dose producing 30% effect), diabetic animals ([3]; sc): 20692 nmol/kg
- ED30 (effective dose producing 30% effect), non-diabetic animals ([3]; sc): 6589 nmol/kg
- dose inducing significant antinociceptive action in naïve (weight matched) rats ([3]; sc): ≥ 2500 nmol/kg
- time of peak antinociceptive effect ([3]; sc): 30 min

Structure (SMILES): C=CC[N+]1(C)CC[C@]23c4c5ccc(O)c4O[C@H]2C(=O)CC[C@@]3(O)[C@H]1C5 (some centres unmarked) [NAL-M, Naloxone methiodide]
- effect of co-administered NAL-M on the antiallodynic action of 14-O-MeM6SU and morphine ([6]; NAL-M 10.6 μmol/kg s.c., co-administered with s.c. 14-O-MeM6SU or morphine): failed to alter the antiallodynic action
- effect of NAL-M alone ([6]; NAL-M alone, n = 5, data not shown): no effect

Structure (SMILES): Clc1cccc(Cl)c1N=C1NCCN1 [clonidine, clonidine-hydrochloride]
- gastric emptying [7]: 55 ± 2%
